For 100 molecules, cytotoxicity results are on record in ChEMBL document CHEMBL3507680, “University of Dundee, Gates Library screen for HepG2 cell viability”.

This data set in a line: Human HepG2 cell viability assay in 384 well format. Type of data set: toxicity, cell-based. Also noted: dose 125 nL, time 70.5 hour; concentration not given beside the values. As to conditions: HepG2 cells, read-out: Inhibition.

As to `Cc1cc(CN2CCC3(CC2)COC(COc2ccccn2)C3)no1` (stereo not given), the cytotoxicity at 70.5 h is 43%.
On to `c1cncc(CN2CCn3cc(Cn4cccn4)nc3C2)c1`, for which the cytotoxicity at 70.5 h is -7.42%.
Take `CNC(=O)[C@H]1C[C@@H]2CN(C(=O)Nc3ccccc3)C[C@H]1O2`: the cytotoxicity at 70.5 h was -25.2%.
As for `Cc1nc(CN2CC3(CCN(c4nccs4)C3)CC2=O)cs1` (stereo not given), the figure is -1.92%.
As for `CCNc1ncc2c(n1)CN(c1ccc(C)c(C)c1)C2=O`, the figure is -11.2%; as for `CCNc1ncc2c(n1)CN(c1ccc(CC)cc1)C2=O`, -8.79%.
As for `Cc1nn(C)c2cnn(CCCNS(=O)(=O)Cc3ccccc3)c12`, the figure is 10.4%.
`CC(C)(C)NC(=O)CCn1ncc2c(Cl)cccc21`: the cytotoxicity at 70.5 h was -5.97%.
Consider `Cc1nn(C)c(C)c1CNC(=O)CCn1ncc2c(Cl)cccc21`, for which the cytotoxicity at 70.5 h was -1.2%.
`CCn1nc(C)c2ncnc(N3CCCC(C)C3)c21` (stereo not given): the cytotoxicity at 70.5 h is 8.26%.
As to `CCn1cc(Cl)c(C(=O)Nc2ccc3c(c2)C(C)(C)C(=O)N3C)n1`, the cytotoxicity at 70.5 h is -16.6%.
For the molecule `Cc1cc(NC(=O)CCn2nc(C)c3ccccc32)n(C(C)C)n1`, the cytotoxicity at 70.5 h is -18%.
Take `CCn1ccc(NC(=O)CN2C(=O)C(C)(C)c3ccccc32)n1`: the cytotoxicity at 70.5 h is -11.1%.
Turning to `CCCc1nc(NCCCn2cccn2)c2c(n1)c(C)nn2CC`, the cytotoxicity at 70.5 h is -4.19%.
Consider `CCCc1nc(Nc2cccc(C(N)=O)c2)c2c(n1)c(C)nn2CC`, for which the cytotoxicity at 70.5 h was -4.15%.
In the case of `CCCc1nc(N2CCCC(C)C2)c2c(n1)c(C)nn2CC` (stereo not given) it was -4%; in that of `CCCc1nc(N2CCCCC2)c2c(n1)c(C)nn2CC`, 15.4%.
Turning to `Cc1nn(C)c2c(N3CCN(C)CC3)nc(C3CC3)nc12`, the cytotoxicity at 70.5 h is -11.8%.
Consider `CC(C)(C)NC(=O)COc1ccc(CNCCOc2ccccn2)cc1`, for which the cytotoxicity at 70.5 h is -2.01%.
As to `CCCc1nc(NCCCn2ccnc2)c2c(n1)c(C)nn2CC`, the cytotoxicity at 70.5 h is -11.1%.
In the case of `CCn1nc(C)c2nc(C(C)C)nc(N3CCOCC3)c21`, the cytotoxicity at 70.5 h stood at 11.2%.
As for `CCn1nc(C)c2nc(C(C)C)nc(NCCCn3ccnc3)c21`, the figure is -17.9%; as for `CSc1ncnc(NCc2cccs2)c1C#N`, -10.7%; as for `Cc1cccc2c1cnn2CCCNC(=O)c1ccnn1C`, -12.7%.
For `Cc1cccc2c1cnn2CCCNC(=O)C1CC1`, the cytotoxicity at 70.5 h is -4.27%.
For `CCCC(=O)NCCCn1ncc2c(C)cccc21`, the cytotoxicity at 70.5 h is -12.9%.
`CCn1cc(NC(=O)C2CCC(=O)N2Cc2ccco2)cn1` (stereo not given): the cytotoxicity at 70.5 h was -6.35%.
Turning to `Cc1cc(C(=O)N(C)Cc2cccs2)nc(N2CCCCC2)n1`, the cytotoxicity at 70.5 h is -6.38%.
In the case of `CCN(CC)C(=O)c1nnsc1-c1ccccc1` it was -10.3%; in that of `CN(C)CCCNC(=O)c1nnsc1-c1ccccc1`, -8.68%.
On to `CC(C)CNC(=O)c1nnsc1-c1ccccc1`, for which the cytotoxicity at 70.5 h is -11.5%.
On to `CCOc1cc(C(=O)N2CCOCC2)cc2occc12`, for which the cytotoxicity at 70.5 h was 22.3%.
As to `CCOc1cc(C(=O)N2CCN(CC)CC2)cc2occc12`, the cytotoxicity at 70.5 h is -3.29%.
With `CCN(CC)CCNS(=O)(=O)c1cccc(CSC)c1`, the cytotoxicity at 70.5 h is -8.72%.
In the case of `CCN(CC)c1nc(C)cc(C(=O)Nc2cnn(CC)c2)n1` it was -12.1%.
`CCn1ccc(NC(=O)CCc2c(C)nn(C)c2C)n1`: the cytotoxicity at 70.5 h came out at 18.2%.
On to `Cc1ccc(CN2C(=O)CCC2C(=O)Nc2cnn(C)c2)o1` (stereo not given), for which the cytotoxicity at 70.5 h is -4.24%.
In the case of `Cc1cc(C(=O)N(C)Cc2cccs2)nc(N2CCCC2)n1`, the cytotoxicity at 70.5 h is -6.81%.
Turning to `CCOCc1cccc(S(=O)(=O)Nc2ccn(CC)n2)c1`, the cytotoxicity at 70.5 h was -0.0962%.
Take `COc1cccc(CNCc2ccccc2Cl)c1O`: the cytotoxicity at 70.5 h was 26.4%.
In the case of `COc1cccc(CNCc2ccc(F)c(Cl)c2)c1O`, the cytotoxicity at 70.5 h is 27%.
As for `CCCn1cc(C(=O)n2nc(C)cc2C)c(S(=O)(=O)N2CCSCC2)n1`, the cytotoxicity at 70.5 h is -7.23%.
Turning to `O=C(NCCc1ccccn1)c1[nH]nc2c1CCCC2`, the cytotoxicity at 70.5 h stood at 3.78%.
With `CSc1ccc(-c2noc(CN(CC(C)C)CC(C)C)n2)cc1`, the cytotoxicity at 70.5 h was -12.7%.
On to `CSc1nc2ccsc2c(=O)n1CC(=O)NC1CCCC1`, for which the cytotoxicity at 70.5 h was -6.44%.
Turning to `CCc1cc(=O)n(CC(=O)N2CCCC2)c(-c2cccc(F)c2)n1`, the cytotoxicity at 70.5 h is 4.18%.
As to `CCc1cc(=O)n(CC(=O)N2CCC(C)CC2)c(-c2cccc(F)c2)n1`, the cytotoxicity at 70.5 h is -3.1%.
In the case of `CCc1cc(=O)n(CC(=O)NCC2CCCO2)c(-c2cccc(F)c2)n1` (stereo not given) it was 2.39%; in that of `CCOC(=O)C1CCN(c2nccc(-n3nc(C)cc3C)n2)CC1`, -3.45%; in that of `O=C(c1nn[nH]c1Nc1ccc(Cl)cc1)N1CCCCCC1`, -10.3%.
For `CC(C)N1CCN(C(=O)c2[nH]nnc2Nc2ccccc2F)CC1`, the cytotoxicity at 70.5 h came out at 16.4%.
With `O=C(c1nn[nH]c1Nc1cccc(Cl)c1)N1CCSCC1`, the cytotoxicity at 70.5 h was 26.2%.
On to `Cc1cc(=O)n(CC(=O)NCC2CCCO2)c(-c2ccccc2)n1` (stereo not given), for which the cytotoxicity at 70.5 h amounted to 2.72%.
`COCCCNC(=O)Cn1c(-c2cccc(Cl)c2)nc(C)cc1=O`: the cytotoxicity at 70.5 h was determined as 2.43%.
Turning to `CCc1cc(=O)n(CC(=O)N2CCCC2)c(-c2ccccc2)n1`, the cytotoxicity at 70.5 h is -5.29%.
In the case of `Cc1nc(N2CCCCC2)ncc1-c1cc(O)nc(N2CCCCC2)n1`, the cytotoxicity at 70.5 h is -0.353%.
For the molecule `CCC(c1ccccc1)c1nn2c(CN(CC)CC)nnc2s1` (stereo not given), the cytotoxicity at 70.5 h is -5.77%.
Take `Cc1ncc2c(n1)CCCC2NC(=O)c1cnn(Cc2ccccc2)c1` (stereo not given): the cytotoxicity at 70.5 h is -12.8%.
`COCC(=O)N1CCC([C@@H]2C[C@H](C(F)(F)F)n3nc(C)cc3N2)CC1`: the cytotoxicity at 70.5 h is -3.42%.
Regarding `Cc1nc(C)n(CCC(=O)N2CCc3ncc(Cl)cc3C2)n1`, the cytotoxicity at 70.5 h was determined as 6.03%.
Take `O=C1CN(C(=O)CCn2c(C(F)(F)F)cc3cccnc32)CCN1`: the cytotoxicity at 70.5 h came out at 4.91%.
Take `O=C(c1ccccn1)N1Cc2ccccc2OC2(CCOCC2)C1`: the cytotoxicity at 70.5 h was -0.0226%.
For `CCCNC(=O)C1(CC2CC(c3ccccc3OC)=NO2)CCOCC1` (stereo not given), the cytotoxicity at 70.5 h came to 6.7%.
In the case of `Nc1cncc(C(=O)N2Cc3ccccc3OC3(CCOCC3)C2)c1`, the cytotoxicity at 70.5 h is 7.99%.
For `Cc1nc(N)sc1C(=O)N1Cc2ccccc2OC2(CCOCC2)C1`, the cytotoxicity at 70.5 h stood at 31.2%.
In the case of `CCc1cc(C(=O)N2CCC(c3cc4ncccc4cn3)CC2)on1` it was -0.772%; in that of `c1cc(-c2nc(C3CCN(Cc4ccsc4)CC3)no2)ccn1`, 36.8%.
As for `CCc1onc(C)c1C(=O)N1CCC(c2cc3ncccc3cn2)CC1`, the cytotoxicity at 70.5 h turned out to be 9.24%.
Take `Cc1nc(C2CCCN2C(=O)Cc2ccc(F)cc2)nc(O)c1C` (stereo not given): the cytotoxicity at 70.5 h worked out at 2.83%.
As for `COCCN(C)C(=O)c1ccccc1-n1cc(CN(C)C)cn1`, the figure is -5.25%; as for `Cc1ccccc1CC(=O)N1CC[C@@](O)(CNS(C)(=O)=O)[C@H](O)C1`, 0.727%; as for `CN(C)Cc1cnn(-c2ccccc2C(=O)N(C)Cc2ccccc2)c1`, -5.67%.
Take `Cc1nc(C(=O)N(C)[C@@H]2CCC[C@@H](Oc3ccccc3)[C@@H]2O)co1`: the cytotoxicity at 70.5 h amounted to 6.12%.
`Cc1noc(C)c1-c1ccc(C2CCCN2C(=O)c2cccnc2)nc1` (stereo not given): the cytotoxicity at 70.5 h is -4.62%.
`COCc1nc(C2CCN(Cc3ncc[nH]3)CC2)no1`: the cytotoxicity at 70.5 h worked out at 6.2%.
Regarding `CC(=O)N1CCC(c2ncc3c(n2)CCN(C(=O)c2ccccc2)C3)C1` (stereo not given), the cytotoxicity at 70.5 h is -2.46%.
On to `COCC(=O)N1CCCC(Cc2cnc(-c3c(C)n[nH]c3C)cn2)C1` (stereo not given), for which the cytotoxicity at 70.5 h came to 0.347%.
As for `O=C(CCn1c(C(F)(F)F)cc2cccnc21)N1CCOCC1`, the figure is 0.815%; as for `Cc1csc2nc3n(c(=O)c12)CCN(Cc1ccccn1)CC3`, 2.36%.
For `O=C(CCn1c(C(F)(F)F)cc2cccnc21)N1CCCC1`, the cytotoxicity at 70.5 h was -0.515%.
In the case of `COc1ccccc1CNC(Cc1cccs1)c1nc(C)cs1` (stereo not given) it was 3.54%; in that of `Cc1nc[nH]c1CN1CCc2nc3scc(C)c3c(=O)n2CC1`, -1.43%; in that of `CC(C)c1cc(C(=O)N2CCc3nc(C4CCCN4)ncc3C2)cs1` (stereo not given), 0.261%.
Regarding `Cc1nc(CN2CC3(CCN(c4cnccn4)C3)CC2=O)cs1` (stereo not given), the cytotoxicity at 70.5 h was -10.3%.
Regarding `COCCN1CC[C@H](OC)[C@@H]1Cc1ccccc1`, the cytotoxicity at 70.5 h is -0.421%.
`CCC(CC)C(=O)N1CCOC2(COCCN(CC(=O)NC)C2)C1` (stereo not given): the cytotoxicity at 70.5 h is -11.7%.
Take `O=C(Cc1ccccn1)N1CCc2ncnc(NC3CCC3)c2CC1`: the cytotoxicity at 70.5 h was -9.73%.
On to `Cn1cc(CN2C[C@@H]3COC[C@H](C(=O)Nc4cccnc4)[C@@H]3C2)cn1`, for which the cytotoxicity at 70.5 h worked out at 44.2%.
For the molecule `CN(C)C(=O)CN1CCn2cc(Cn3cccn3)nc2C1`, the cytotoxicity at 70.5 h is -10.4%.
As for `c1ccc(CCN2CCn3cc(Cn4cccn4)nc3C2)cc1`, the cytotoxicity at 70.5 h was -10.6%.
As to `Cc1ccc(CN2CCc3onc(COc4cccnc4)c3C2)s1`, the cytotoxicity at 70.5 h is -26.9%.
`c1ccc(CO[C@H]2CO[C@@]3(CCCN(Cc4cccnc4)C3)C2)nc1`: the cytotoxicity at 70.5 h is -24.8%.
On to `COc1ncccc1CN1C[C@@H]2COC[C@]2(COc2ccccn2)C1`, for which the cytotoxicity at 70.5 h was -20.4%.
Turning to `CCOCc1cc(CN2CCn3c(CO)nnc3C2)ccc1OC`, the cytotoxicity at 70.5 h is 1.27%.
As for `COc1ccc(C(C)(C)C)cc1CN1CCn2c(CO)nnc2C1`, the figure is 6.88%.
As for `Cc1ccc(CN(CCCn2ccnc2)Cc2cc(F)ccc2F)s1`, the figure is 20.3%; as for `Cc1ccc(CN(CCCn2ccnc2)Cc2cnc(N(C)C)nc2)s1`, 21.5%; as for `COc1ccc(F)c(CN(CCCn2ccnc2)Cc2ccc(C)s2)c1`, 45.5%.
Regarding `Cc1ccc(CN(CCCn2ccnc2)Cc2ccccc2O)s1`, the cytotoxicity at 70.5 h was found to be 3.23%.
In the case of `Cc1ccc(CN(CCCn2ccnc2)Cc2[nH]cnc2C)s1`, the cytotoxicity at 70.5 h was 2.51%.
